# In patent publication US9624245B2, “Macrocyclic compounds as HCV entry inhibitors” (priority 2013, dated 2017):
# Read-outs that look alike come from different tables or passages of the source.
# Test system: HCV pseudoparticles, genotype 1a HCV E1 and E2 envelope (H77C isolate)
# Test: HCV pseudoparticle infection assay (luciferase reporter, Huh7 cells)
# Format: cell-based, HCV genotype 1a (H77C)
# Conditions: Hepatitis C virus, Huh-7, 48 h
# [1] = read-out: EC50 (nM) 1a (H77C), class symbol, HCV pseudoparticle entry into Huh7 cells, luciferase measured 2 days after infection
# [2] = read-out: EC50 (nM) 1a (H77C), HCV pseudoparticle entry into Huh7 cells, luciferase measured 2 days after infection, average of duplicates
Structure (SMILES),EC50 [1],EC50 [2]
O=C1NCC2(CC2)CNCC2(COC2)COc2ccc(cc2)CNc2nc(nc(OCC(F)(F)F)n2)Nc2ccc1cc2 [Example 6005],0.01 to 10 nM,
C=C1CNCC2CN(C2)C(=O)c2ccc(cc2)Nc2nc(nc(OCC(F)(F)F)n2)NCc2ccc(cc2)OC1 [Example 2001],0.01 to 10 nM,
C[C@H]1CNC2C3CN(CC32)C(=O)c2ccc(cc2)Nc2nc(nc(OCC(F)(F)F)n2)NCc2ccc(cc2)OC1 [Example 3001],10 to 1000 nM,
CC1(C)CNC(=O)C(=O)Nc2ccc(cc2)OCCCCOc2ccc(cc2)CNc2nc(nc(OCC(F)(F)F)n2)Nc2ccc(cc2)C(=O)NC1 [Example 4001],10 to 1000 nM,
CC1(C)CNC(=O)C(=O)Nc2ccc(cc2)OCCCOc2ccc(cc2)CNc2nc(nc(OCC(F)(F)F)n2)Nc2ccc(cc2)C(=O)NC1 [Example 4002],0.01 to 10 nM,
O=C1NCC2(CNCCCOc3ccc(cc3)CNc3nc(nc(OCC(F)(F)F)n3)Nc3ccc1cc3)COC2 [Example 6001],0.01 to 10 nM,
CC1(C)CNC(=O)C(=O)Nc2ccc(cc2)OCCOc2ccc(cc2)CNc2nc(nc(OCC(F)(F)F)n2)Nc2ccc(cc2)C(=O)NC1 [Example 4003],10 to 1000 nM,23.6 nM
O=C1NCCCNCC2(COC2)COc2ccc(cc2)CNc2nc(nc(OCC(F)(F)F)n2)Nc2ccc1cc2 [Example 6003],0.01 to 10 nM,
C=C1COc2ccc(cc2)CNc2nc(nc(OCC(F)(F)F)n2)Nc2ccc(cc2)C(=O)N2CC3CN(C1)CC3C2 [Example 2004],10 to 1000 nM,
C[C@@H]1COc2ccc(cc2)CNc2nc(nc(OCC(F)(F)F)n2)Nc2ccc(cc2)C(=O)N2CC3(C)CN(C1)CC(C)(C2)C3=O [Example 3003],10 to 1000 nM,34.3 nM
C[C@H]1CNCC2(CNC(=O)c3ccc(cc3)Nc3nc(nc(OCC(F)(F)F)n3)NCc3ccc(cc3)OC1)COC2 [Example 6002],10 to 1000 nM,
CC1(C)CNC(=O)C(=O)Nc2ccc(cc2)OC/C=C\COc2ccc(cc2)CNc2nc(nc(OCC(F)(F)F)n2)Nc2ccc(cc2)C(=O)NC1 [Example 4005],10 to 1000 nM,
O=C1c2ccc(cc2)Nc2nc(nc(OCC(F)(F)F)n2)NCc2ccc(cc2)OCCCN2CCC3(CCN1C3)C2 (stereo not drawn) [Example 1001],10 to 1000 nM,160 nM
C[C@@H]1COc2ccc(cc2)CNc2nc(nc(OCC(F)(F)F)n2)Nc2ccc(cc2)C(=O)N2CC3CCN(CC3C2)C1 (stereo partly drawn) [Example 3002],10 to 1000 nM,116 nM
C[C@@H]1CNCC2(CNC(=O)c3ccc(cc3)Nc3nc(nc(OCC(F)(F)F)n3)NCc3ccc(cc3)OC1)COC2 [Example 6004],10 to 1000 nM,
O=C1c2ccc(cc2)Nc2nc(nc(OCC(F)(F)F)n2)NCc2ccc(cc2)OCCCN2CCCNCCCN1CCC2 [Example 1002],0.01 to 10 nM,5.32 nM
CC1(C)CNCC2(COC2)COc2ccc(cc2)CNc2nc(nc(OCC(F)(F)F)n2)Nc2ccc(cc2)C(=O)NC1 [Example 5001],0.01 to 10 nM,0.796 nM
C=C1COc2ccc(cc2)CNc2nc(nc(OCC(F)(F)F)n2)Nc2ccc(cc2)C(=O)N2CC3(CN(C1)C3)C2 [Example 2003],0.01 to 10 nM,3.08 nM
C=C1COc2ccc(cc2)CNc2nc(nc(OCC(F)(F)F)n2)Nc2ccc(cc2)C(=O)N2CCCN(CC2)C1 [Example 2002],10 to 1000 nM,
CC1(C)CNC(=O)C(=O)Nc2ccc(cc2)OC/C=C/COc2ccc(cc2)CNc2nc(nc(OCC(F)(F)F)n2)Nc2ccc(cc2)C(=O)NC1 [Example 4004],10 to 1000 nM,
